Results taken from patent publication US8242240B2, “Anti-inflammatory compounds and uses thereof” (Yale University, priority 2000, dated 2012).

Key:
[1] = system: NF-κB; experiment: pBIIX-luciferase NF-κB reporter assay in HeLa cells; type: cell-based, human; details: for TNFα-induced NF-κB activation (luciferase reporter): peptide 100 and 200 μM 2 h, TNFα 10 ng/ml 4 h; for basal NF-κB activity (luciferase reporter): no TNFα
Experimental: (A) Sequences of wild-type (SEQ ID NO:18) and mutant (SEQ ID NO:19 forms of IKKβ NBD peptide. (B) GST-pull-down analysis was performed using either GST-NEMO-in vitro translated IKKβ (upper panel) or GST-IKKβ-(644-756)-in vitro translated NEMO (lower panel). The assay was performed in the absence (no peptide) or presence of increasing concentrations ([…], 500 or 1000 μM) of either mutant (MUT) (SEQ ID NO:19) or wild-type (WT) NBD (SEQ ID NO:18). (C) HeLa cells were incubated with either peptide (200 μM) for the times indicated. Following lysis, the IKK complex was immunoprecipitated using anti-NEMO and the resulting immunoblot probed with anti-IKKβ. (D) Gel image showing anti-NEMO immunoprecipitation. (E) Gel image showing anti-FLAG immunoblot. (F) HeLa cells were incubated for three hours with increasing concentrations: 50, 100 or 200 μM) of each peptide followed by treatment for fifteen minutes with TNFα (10 ng/ml) as indicated (+). Following lysis, nuclear extracts were made and 10 μg of protein from each sample was used for EMSA using a specific [^32P]-labeled κB-site probe. (G) Gel image showing anti-Phospho-C-Jun immunoblot and anti-β-Actin immunoblot. (H) HeLa cells were transfected for forty-eight hours with pBIIX-luciferase then incubated for two hours in the absence (control) or presence of mutant or wild-type NBD peptide (100 and 200 μM of each). Subsequently the cells were either treated with TNFα (10 ng/ml) as indicated (toe panel) or left untreated (bottom panel) for a further four hours after which NF-κB activation was measured by luciferase assay.
For transfection studies, HeLa and COS cells were seeded into either twenty-four well (1×10^5 cells/well) or six well (5×10^5 cells/well) plates and grown for twenty-four hours before transfection of DNA with FUGENE6(Roche) according to the manufacturer's protocol. Cells in twenty-four well and six well trays received a total of 1 μg or 2 μg of DNA respectively. After forty-eight hours cells were lysed with TNT (200 mM NaCl, 20 mM Tris-pH 8.0, 1% Triton-100) and the lysate were used for either immunoprecipitation or luciferase assay (Primage Luciferase Assay System).
The effects of the NBD peptides on signal-induced activation of NF-κB were investigated next. Analysis using electrophoretic mobility shift assay. […] Further, after transfecting HeLa cells with the pBIIX-luciferase reporter, cells were preincubated with wild-type or mutant peptides, treated with TNFα and NF-κB activation measured by the luciferase reporter assay. As shown in FIG. 5H (top panel), the wild-type NBD peptide inhibited TNFα-induced NF-κB activation whereas the mutant had no effect. […]

[2] = system: mice (PMA-induced ear edema); experiment: PMA-induced ear edema in mice; type: in vivo; details: topical 200 μg/ear
Experimental: The NBD peptide was tested for its ability to inhibit inflammatory responses in animals using two distinct models of acute inflammation. In the first model, ear edema was induced in mice using phorbol-12-myristate-13-acetate (PMA) and the effects of topical administration of the NBD peptides were measured. Ear edema using PMA was induced in replicate groups of age and sex matched mice as previously described (Chang et al., (1987) Eur. J. Pharmacol. 142, 197-205). Twenty μl of either NBD peptides (200 μg/ear), dexamethasone (40 μg/ear) or vehicle (DMSO:Ethanol; 25:75 v/v) was applied topically to the right ear of mice thirty minutes before and thirty minutes after the application of 20 μl of PMA (5 μg/ear) dissolved in ethanol. Ear swelling was measured six hours after PMA application using a microgauge and expressed as the mean difference in thickness between the treated (right) and untreated (left) ears. Statistical analysis of the data was performed using the students t-test. A value of p<0.05 was considered statistically significant.

[3] = system: Mouse bone marrow cells; experiment: RANKL-induced osteoclast differentiation of bone marrow cells; type: cell-based; details: M-CSF 20 ng/ml + RANKL 100 ng/ml, six days, peptide 6.25, 12.5 and 25 mM
Text: Osteoporosis is a severely debilitating disease characterized by an extensive loss of bone mass that is mediated by osteoclast-dependent bone resorbtion (Suda et al., (1992) Endocr. Rev. 13, 66-80; Suda et al., (1999) Endocr. Rev. 20, 345-357). It is therefore possible that selective inhibition of NF-κB activation in osteoclast precursor cells would prevent osteoclast differentiation and provide the basis for therapeutically effective drugs for the treatment of osteoporosis. Therefore the effect of the NBD peptides on osteoclast differentiation was tested using a previously described in vitro model (Jimi et al., (1999) Exp. Cell Res. 247, 84-93). Mouse bone marrow cells plated into 48-well tissue culture trays were incubated with human macrophage-colony stimulating factor (M-CSF; 20 ng/ml) and human RANKL (100 ng/ml) for six days in the absence or presence of various concentrations ([…]) of either mutant or wild-type NBD peptide. The cells were then fixed and stained for the osteoclast phenotypic marker tartrate-resistant acid phosphatase (TRAP) and TRAP-positive mutinucleated cells containing more than three nuclei were counted as osteoclasts. Triplicate samples were counted and results were calculated as means±SD.

Substance | TNFα-induced NF-κB activation (luciferase reporter) [1] | effect on PMA-induced ear thickening ([2]; p=0.09) | inhibition of osteoclast differentiation (TRAP-positive multinucleated cells) [3] | basal NF-κB activity (luciferase reporter) ([1]; listed as cell-permeable NBD peptide) | basal NF-κB activity (luciferase reporter) ([1]; listed as wild-type peptide) | inhibition of PMA-induced ear thickening ([2]; 30 min before and after PMA 5 μg/ear, 6 h) | inhibition of osteoclast differentiation (TRAP-positive multinucleated cells) ([3]; listed as wild type) | inhibition of osteoclast differentiation (TRAP-positive multinucleated cells) ([3]; listed as wild-type)
[DRQIKIWFQNRRMKWKK]TALDASALQTE (DRQIKIWFQNRRMKWKKTALDASALQTE; Description of Artificial Sequence: Synthetic Mutant NBD peptide) [identical to wild-type NBD peptide except W739 and W741 mutated to alanine, reference compound] | no effect | insignificant | not |  |  |  |  | 
[DRQIKIWFQNRRMKWKK]TALDWSWLQTE (DRQIKIWFQNRRMKWKKTALDWSWLQTE; Description of Unknown: Unknown wildtype NBD peptide) [wild-type NBD peptide] | inhibited |  |  | modest increase | enhanced | 77±3% | dose-dependently inhibited | dose dependent inhibition
